Test results: patent publication US12384808B2, “Modulators of TNF-α activity” (Forward Therapeutics, Inc., priority 2022, dated 2025)
pIC50: −log10 of the molar value.

Target: TNFα (Homo sapiens, UniProt P01375)
Experiment: TNFα Induced HEK Blue Cellular Assay
Format: cell-based
Conditions: HEK Blue TNFα reporter cells, TNFα 100 pg/ml, 24 hrs at 37° C., secreted alkaline phosphatase (QUANTI-Blue) read at 620 nm; read-out: IC50 value
Protocol: TNFα Induced HEK Blue Cellular Assay
Test articles were diluted in DMSO and serially diluted into 384 well assay plate (Corning 3765), at final concentrations ranging from […] to 0.5 nM. HEK Blue™ TNFα reporter cells were added at a final density of 10,000 cell per well in assay media [DMEM (Gibco, cat #21063-029), 10% fetal bovine serum (ExcelBio, cat #FND500), 1% Penicillin-Streptomycin (Solarbio, cat #P1400-100]. TNFα (R&D 210-TA-020/CF) was then added to the assay plate at a final concentration of 100 pg/ml. This plate was then incubated for 24 hrs at 37° C. and 5% CO2. Secreted alkaline phosphatase expression was then measured using QUANTI-Blue™ (Invivogen), according to manufacturer instructions and read on an Envision microplate reader at 620 nm.
Inhibition data for test compound over a range of concentration was plotted as percentage inhibition of the test compound (100%=maximum inhibition). IC50 values were determined after correcting for background [(sample read−mean of low control)/(mean of high control−mean of low control)] where by the low control is DMSO without stimulation and high control is DMSO with stimulation. The IC50 is defined as the concentration of test compound which produces 50% inhibition and was quantified using the 4 parameter logistic equation to fit the data.

Chain of TNFα (P01375 77-233 limits assumed): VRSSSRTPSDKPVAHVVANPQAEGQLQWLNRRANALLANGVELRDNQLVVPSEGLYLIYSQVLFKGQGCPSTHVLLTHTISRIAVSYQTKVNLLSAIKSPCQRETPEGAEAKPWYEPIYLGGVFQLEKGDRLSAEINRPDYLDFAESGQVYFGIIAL

| SMILES | pIC50 |
| --- | --- |
| CP(C)(=O)c1c(F)cc(-c2ccc3nc4n(c3c2)[C@@H]2C[C@H]4NC(=O)c3cccc(OC(F)F)c32)cc1F [Example 35, (1R,11R)-18-(difluoromethoxy)-5-[4-(dimethylphosphoryl)-3,5-difluorophenyl]-2,9,12-triazapentacyclo[9.8.1.0^{2,10}.0^{3,8}.0^{14,19}]icosa-3(8),4,6,9,14(19),15,17-heptaen-13-one] | 6.00 to 7.00 |
| CN1C(=O)c2cccc(OC(F)F)c2[C@H]2C[C@@H]1c1nc3ccc(-c4ccc(OCCCP(C)(C)=O)nc4)cc3n12 [Example 40, (1R,11R)-18-(difluoromethoxy)-5-{6-[3-(dimethylphosphoryl)propoxy]pyridin-3-yl}-12-methyl-2,9,12-triazapentacyclo[9.8.1.0^{2,10}.0^{3,8}.0^{14,19}]icosa-3(8),4,6,9,14(19),15,17-heptaen-13-one] | 6.00 to 7.00 |
| CP(C)(=O)c1ccc(-c2ccc3nc4n(c3c2)[C@@H]2C[C@H]4NC(=O)c3cccc(OC(F)F)c32)c(Cl)c1 [Example 41, (1R,11R)-5-[2-chloro-4-(dimethylphosphoryl)phenyl]-18-(difluoromethoxy)-2,9,12-triazapentacyclo[9.8.1.0^{2,10}.0^{3,8}.0^{14,19}]icosa-3(8),4,6,9,14(19),15,17-heptaen-13-one] | > 7.00 |
| CP(C)(=O)COc1ncc(-c2ccc3nc4n(c3c2)[C@@H]2C[C@H]4NC(=O)c3cccc(OC(F)F)c32)s1 [Example 42, (1R,11R)-18-(difluoromethoxy)-5-{2-[(dimethylphosphoryl)methoxy]-1,3-thiazol-5-yl}-2,9,12-triazapentacyclo[9.8.1.0^{2,10}.0^{3,8}.0^{14,19}]icosa-3(8),4,6,9,14(19),15,17-heptaen-13-one] | > 7.00 |
| CP(C)(=O)c1ccc(-c2ccc3nc4n(c3c2)[C@@H]2C[C@H]4NC(=O)c3cccc(OC(F)F)c32)cc1F [Example 43, (1R,11R)-18-(difluoromethoxy)-5-[4-(dimethylphosphoryl)-3-fluorophenyl]-2,9,12-triazapentacyclo[9.8.1.0^{2,10}.0^{3,8}.0^{14,19}]icosa-3(8),4,6,9,14(19),15,17-heptaen-13-one] | > 7.00 |
| CCN1C(=O)c2cccc(OC(F)F)c2[C@H]2C[C@@H]1c1nc3ccc(-c4ccc(OCP(C)(C)=O)cc4)cc3n12 [Example 44, (1R,11R)-18-(difluoromethoxy)-5-{4-[(dimethylphosphoryl)methoxy]phenyl}-12-ethyl-2,9,12-triazapentacyclo[9.8.1.0^{2,10}.0^{3,8}.0^{14,19}]icosa-3(8),4,6,9,14(19),15,17-heptaen-13-one] | > 7.00 |
| CCN1C(=O)c2cccc(OC(F)F)c2[C@H]2C[C@@H]1c1nc3ccc(-c4ccc(P(C)(C)=O)c(F)c4)cc3n12 [Example 45, (1R,11R)-18-(difluoromethoxy)-5-[4-(dimethylphosphoryl)-3-fluorophenyl]-12-ethyl-2,9,12-triazapentacyclo[9.8.1.0^{2,10}.0^{3,8}.0^{14,19}]icosa-3(8),4,6,9,14(19),15,17-heptaen-13-one] | > 7.00 |
| CCN1C(=O)c2cccc(OC(F)F)c2[C@H]2C[C@@H]1c1nc3ccc(-c4cc(F)c(P(C)(C)=O)c(F)c4)cc3n12 [Example 46, (1R,11R)-18-(difluoromethoxy)-5-[4-(dimethylphosphoryl)-3,5-difluorophenyl]-12-ethyl-2,9,12-triazapentacyclo[9.8.1.0^{2,10}.0^{3,8}.0^{14,19}]icosa-3(8),4,6,9,14(19),15,17-heptaen-13-one] | > 7.00 |
| CP(C)(=O)c1ccc(-c2ccc3nc4n(c3c2)[C@@H]2C[C@H]4N(C3CC3)C(=O)c3cccc(OC(F)F)c32)cn1 [Example 47, (1R,11R)-12-cyclopropyl-18-(difluoromethoxy)-5-[6-(dimethylphosphoryl)pyridin-3-yl]-2,9,12-triazapentacyclo[9.8.1.0^{2,10}.0^{3,8}.0^{14,19}]icosa-3(8),4,6,9,14(19),15,17-heptaen-13-one] | > 7.00 |

More lines, now with the values ahead:

| pIC50 | SMILES |
| --- | --- |
| > 7.00 | CN1C(=O)c2cccc(OC(F)F)c2[C@H]2C[C@@H]1c1nc3ccc(-c4ccc(P(C)(C)=O)cc4Cl)cc3n12 [Example 27, (1R,11R)-5-[2-chloro-4-(dimethylphosphoryl)phenyl]-18-(difluoromethoxy)-12-methyl-2,9,12-triazapentacyclo[9.8.1.0^{2,10}.0^{3,8}.0^{14,19}]icosa-3(8),4,6,9,14(19),15,17-heptaen-13-one] |
| > 7.00 | CN1C(=O)c2cccc(OC(F)F)c2[C@H]2C[C@@H]1c1nc3ccc(-c4ccc(P(C)(C)=O)cc4F)cc3n12 [Example 28, (1R,11R)-18-(difluoromethoxy)-5-[4-(dimethylphosphoryl)-2-fluorophenyl]-12-methyl-2,9,12-triazapentacyclo[9.8.1.0^{2,10}.0^{3,8}.0^{14,19}]icosa-3(8),4,6,9,14(19),15,17-heptaen-13-one] |
| > 7.00 | Cc1cc(P(C)(C)=O)ccc1-c1ccc2nc3n(c2c1)[C@@H]1C[C@H]3N(C)C(=O)c2cccc(OC(F)F)c21 [Example 29, (1R,11R)-18-(difluoromethoxy)-5-[4-(dimethylphosphoryl)-2-methylphenyl]-12-methyl-2,9,12-triazapentacyclo[9.8.1.0^{2,10}.0^{3,8}.0^{14,19}]icosa-3(8),4,6,9,14(19),15,17-heptaen-13-one] |
| > 7.00 | CN(CP(C)(C)=O)c1ccc(-c2ccc3nc4n(c3c2)[C@@H]2C[C@H]4N(C)C(=O)c3cccc(OC(F)F)c32)cn1 [Example 30, (1R,11R)-18-(difluoromethoxy)-5-(6-{[(dimethylphosphoryl)methyl](methyl)amino}pyridin-3-yl)-12-methyl-2,9,12-triazapentacyclo[9.8.1.0^{2,10}.0^{3,8}.0^{14,19}]icosa-3(8),4,6,9,14(19),15,17-heptaen-13-one] |
| > 7.00 | CP(C)(=O)c1ccc(-c2ccc3nc4n(c3c2)[C@@H]2C[C@H]4NC(=O)c3cccc(OC(F)F)c32)c(F)c1 [Example 31, (1R,11R)-18-(difluoromethoxy)-5-[4-(dimethylphosphoryl)-2-fluorophenyl]-2,9,12-triazapentacyclo[9.8.1.0^{2,10}.0^{3,8}.0^{14,19}]icosa-3(8),4,6,9,14(19),15,17-heptaen-13-one] |
| > 7.00 | Cc1cc(P(C)(C)=O)ccc1-c1ccc2nc3n(c2c1)[C@@H]1C[C@H]3NC(=O)c2cccc(OC(F)F)c21 [Example 32, (1R,11R)-18-(difluoromethoxy)-5-[4-(dimethylphosphoryl)-2-methylphenyl]-2,9,12-triazapentacyclo[9.8.1.0^{2,10}.0^{3,8}.0^{14,19}]icosa-3(8),4,6,9,14(19),15,17-heptaen-13-one] |
| > 7.00 | CN1C(=O)c2cccc(OC(F)F)c2[C@H]2C[C@@H]1c1nc3ccc(-c4ccc(CP(C)(C)=O)cc4)cc3n12 [Example 33, (1R,11R)-18-(difluoromethoxy)-5-{4-[(dimethylphosphoryl)methyl]phenyl}-12-methyl-2,9,12-triazapentacyclo[9.8.1.0^{2,10}.0^{3,8}.0^{14,19}]icosa-3(8),4,6,9,14(19),15,17-heptaen-13-one] |
| > 7.00 | CP(C)(=O)c1ccc(-c2ccc3nc4n(c3c2)[C@@H]2C[C@H]4NC(=O)c3cccc(OC(F)F)c32)c(F)c1F [Example 34, (1R,11R)-18-(difluoromethoxy)-5-[4-(dimethylphosphoryl)-2,3-difluorophenyl]-2,9,12-triazapentacyclo[9.8.1.0^{2,10}.0^{3,8}.0^{14,19}]icosa-3(8),4,6,9,14(19),15,17-heptaen-13-one] |
| > 7.00 | CN1C(=O)c2cccc(OC(F)F)c2[C@H]2C[C@@H]1c1nc3ccc(-c4ccc(P(C)(C)=O)c(F)c4F)cc3n12 [Example 36, (1R,11R)-18-(difluoromethoxy)-5-[4-(dimethylphosphoryl)-2,3-difluorophenyl]-12-methyl-2,9,12-triazapentacyclo[9.8.1.0^{2,10}.0^{3,8}.0^{14,19}]icosa-3(8),4,6,9,14(19),15,17-heptaen-13-one] |
| > 7.00 | CN1C(=O)c2cccc(OC(F)F)c2[C@H]2C[C@@H]1c1nc3ccc(-c4cc(F)c(P(C)(C)=O)c(F)c4)cc3n12 [Example 37, (1R,11R)-18-(difluoromethoxy)-5-[4-(dimethylphosphoryl)-3,5-difluorophenyl]-12-methyl-2,9,12-triazapentacyclo[9.8.1.0^{2,10}.0^{3,8}.0^{14,19}]icosa-3(8),4,6,9,14(19),15,17-heptaen-13-one] |
| > 7.00 | CN1C(=O)c2cccc(OC(F)F)c2[C@H]2C[C@@H]1c1nc3ccc(-c4ccc(OCP(C)(C)=O)cc4)cc3n12 [Example 38, (1R,11R)-18-(difluoromethoxy)-5-{4-[(dimethylphosphoryl)methoxy]phenyl}-12-methyl-2,9,12-triazapentacyclo[9.8.1.0^{2,10}.0^{3,8}.0^{14,19}]icosa-3(8),4,6,9,14(19),15,17-heptaen-13-one] |
| > 7.00 | CN1C(=O)c2cccc(OC(F)F)c2[C@H]2C[C@@H]1c1nc3ccc(-c4ccc(OCCP(C)(C)=O)nc4)cc3n12 [Example 39, (1R,11R)-18-(difluoromethoxy)-5-{6-[2-(dimethylphosphoryl)ethoxy]pyridin-3-yl}-12-methyl-2,9,12-triazapentacyclo[9.8.1.0^{2,10}.0^{3,8}.0^{14,19}]icosa-3(8),4,6,9,14(19),15,17-heptaen-13-one] |
